One data set relates to CLL B cells. Description: Apoptosis/cytotoxicity in CLL B cells in vitro. The class given is cell-based, human.
The target in the next data set is T1, DR5 (Homo sapiens, UniProt O14763).
T1 construct: fusing cDNA from residues 1-180 of the extracellular portion of DR5; made in house; host or cells: QBI-293A cells, recombinant adenovirus (pAdΔDR5-Fc)
Description: ELISA binding of TRAIL and TRA-8 to the receptors. The source says:
The reactions are developed by TMB substrate buffer and measured by the Benchmark Microplate Reader (BioRad). The Kd values are estimated by the one-site binding model of non-linear regression using GraphPad Prism® software (GraphPad Software, San Diego, Calif.).
Background: ELISA stands for enzyme-linked immunosorbent assay.

The next data set addresses T2, DR4 (Homo sapiens, UniProt O00220).
T2 construct: a fusion protein comprising the extracellular domain of human DR5 or DR4 and the Fc region of human IgG1; human IgG1 Fc (Ig)
Description: ELISA binding of TRAIL and TRA-8 to the receptors. How it is done: ELISA plates are coated with 2 μg/ml of DR4-Ig or DR5-Ig fusion protein overnight. […] The reactions are developed by TMB substrate buffer and measured by the Benchmark Microplate Reader (BioRad). The Kd values are estimated by the one-site binding model of non-linear regression using GraphPad Prism® software (GraphPad Software, San Diego, Calif.).

Data set [1] relates to B lymphoma cell lines SKW6.4, EB-3, and Raji. Description: Apoptosis susceptibility (ATPLite, overnight). The data set is classed as cell-based, human. To be noted: TRAIL plus crosslinker. How it is done: (§1) Cell viability is determined using (1) the ATPLite® kit according to the manufacturer's instructions (Packard Instruments, Meriden, Conn.); (2) the MTT Cell proliferation/viability kit (Sigma); or (3) PI staining of dead cells and analyzed by flow cytometry. At end of culture, cells are stained with 10 μg/ml PI and PI negative cells are gated as viable cells. For analysis of condensed nuclei of hepatocytes, cells are stained with 10 ng/ml Hoechst 33352 (Molecular Probes) and analyzed by flow cytometry.
On the technique in general: ATP-based viability assays read luminescence as a measure of living cells.

In a further data set the test system is Daudi. Description: Apoptosis susceptibility (ATPLite, overnight). The data set is classed as cell-based, human. The following applies: TRAIL plus crosslinker. How it is done:
as §1

The next data set concerns H-9 cells. Description: Apoptosis susceptibility (ATPLite, overnight). To be noted: TRAIL plus crosslinker. The class given is cell-based, human. How it is done:
as §1

A further data set has as its system Jurkat and CEM-6. Description: Apoptosis susceptibility (ATPLite, overnight). To be noted: TRAIL plus crosslinker. The data set is classed as cell-based, human. How it is done:
as §1

In the next data set the test system is Molt-4 and U937 cells. Description: Apoptosis susceptibility (ATPLite, overnight). The class given is cell-based, human. To be noted: TRAIL plus crosslinker. On the procedure: as §1
For data set [2], the system named is Primary peripheral blood T cells. Description: Apoptosis susceptibility (ATPLite, overnight). The data set is classed as cell-based, human. The following applies: TRAIL plus crosslinker. How it is done:
as §1

The subject of a further data set is U87, U937 and Molt-4. Description: Apoptosis susceptibility (ATPLite, overnight). The class given is cell-based, human. How it is done:
as §1

Data set [3] has as its system glioma cell lines Hs683 and U251-MG. Description: Apoptosis susceptibility (ATPLite, overnight). The class given is cell-based, human. How it is done: as §1
Another data set deals with primary B cells. Description: Apoptosis susceptibility (ATPLite, overnight). The following applies: TRAIL plus crosslinker. The class given is cell-based, human. How it is done: as §1
The subject of the next data set is OA72M cells. Description: Apoptosis of primary synovial cells. The data set is classed as cell-based, human. An excerpt:
(§2) Cell viability is the percentage of the cpm of treated cells versus the cpm of untreated cells.
(§3) The expression of DR5 on a panel of eight primary cultured synovial cells from patients with RA is compared with that on eight primary cultured synovial cells from patients with osteoarthritis (hereinafter referred to as “OA”). The eight human primary RA synovial cell cultures RA-1014, RA-1016, RA-1021, RA-512, RA-707, RA-811, RA-716, and RA-929 are kindly provided by Dr. M. Ohtsuki (Sankyo Co. Ltd., Tokyo, Japan) and cultured in DMEM supplemented with 10% FCS, penicillin, streptomycin, and glutamine. The […] OA synovial cell primary cell cultures are isolated from the synovial tissues of OA patients by a standard collagenase method and cultured under the same conditions. The passage number of all primary cells is under 10. The expression of DR5 is determined by FACs analysis as described in Example 5.

In data set [4] the test system is RA-1014, RA-811, RA-716, and RA929. Description: Apoptosis of primary synovial cells. The class given is cell-based, human. To be noted: high concentrations (>50 ng/ml).
Description: as §2, §3

For data set [5], the system named is SV40 transformed synovial cells. Description: Apoptosis of synovial cells. The data set is classed as cell-based, human. To be noted: data not shown.
In data set [6] the test system is non-transformed fibroblast cells. Description: Apoptosis of fibroblast cells. The data set is classed as cell-based.
Another data set relates to NF-κb. Description: Gel-shift assay of NF-κb activation in RA synovial cells. The data set is classed as cell-based, human. To be noted: 50 ng/ml TRAIL, Fas ligand or TRA-8; 20 ng/ml TNF-a. How it is done:
There is considerable evidence to support the concept that there are close links between the signaling of apoptosis and the signaling of proliferation (45). It has been established that DR5 is able to activate a NF-kb pathway in addition to apoptosis signaling transduction, and that NF-κb activation may be able to transduce an anti-apoptosis signal. Therefore a gel-shift assay is carried out. […] The nuclear extracts are prepared and incubated with the […] [^32P]-labeled oligo-DNA probe. The results are analyzed using the cyclone phospha-imager (TopCount NXT, Packard Instrument Company, CT).

In a further data set the test system is MMP-1, 3, and 13. Description: Production of MMPs by RA synovial cells (ELISA). The data set is classed as cell-based, human. The following applies: overnight; 50 ng/ml interleukin 1b, 10 ng/ml TNF-a, 50 ng/ml TRAIL or TRA-8; vs medium control. How it is done:
Thus, it is possible that TRAIL, like TNF-α, may serve as a pro-inflammatory cytokine. […] The levels of the MMP-1 and MMP-3 in the culture supernatants are determined by the ELISA kits.

The subject of another data set is normal human hepatocytes. Description: Hepatocellular toxicity, cell viability (ATPLite). The class given is cell-based. An excerpt:
For 24-hour cell viability assays, fresh normal human hepatocytes in 96-well plates were purchased from In Vitro Technology (Baltimore, Md.). […] For 6-hour viability assays, normal hepatocytes or hepatocellular cancer cells are isolated from fresh surgical specimens collected from UAB Tissue Procurement Center. All reagents for isolation of human hepatocytes including hepatocytes perfusion buffer, digest medium, washing medium, and attachment medium were purchased from Gibco. The tissue slides are digested in the Hepatocyte Digest Medium at 37° C. with shaking (50 rpm) for one hour. The isolated hepatocytes are harvested by low speed centrifugation (50 g, 3 min), and washed with the Hepatocyte Washing Medium six times. Single cell suspension of hepatocytes are cultured in the Attachment Medium containing 10% FCS in 96-well Matrigel plates (BD) for six hours. Non-attached hepatocytes are removed by twice washing with pre-warmed attachment medium.

The subject of another data set is HepG2 cells. Description: Cell viability (ATPLite). The class given is cell-based, human. To be noted: 8-hour culture period.
A short description of data set [7]: Induction of hepatitis in vivo by tetracycline-inducible adenoviral vectors. Set-up: species or system B6 mice. The following applies: 10 μg in Ad/TRAIL inoculated mice, AST at 24 hours. On the procedure: 8-10 week-old female B6 mice are intravenously injected with 10^9 pfu of Ad/hTRAIL with the equal number of Ad/Tet-on. Mice are fed with different concentrations of tetracycline in their drinking water immediately after inoculation of adenoviral vectors. Liver injury is determined by serum levels of AST using an AST diagnostic kit (Sigma). Expression of TRAIL is determined by Northern blot analysis.

The next data set relates to Jurkat cells. Description: Apoptosis-inducing activity of humanized antibody (XTT, 12 hours). The class given is cell-based, human. The following applies: serial 2-fold dilutions from 100 ng/ml. On the procedure:
Jurkat cells cultured in RPMI1640 medium with 10% FCS (Gibco BRL) at 37° C. for 3 days in the presence of 5% CO2 are dispensed into each well of a 96-well microplate (Sumitomo Bakelite) at 50 μl per well. […] Each of the solutions of the expression products thus adjusted to 100 ng/ml is used to produce serial dilutions by repeating serial 2-fold dilution with RPM11640 containing 10% FCS. […] After reacting at 37° C. for 12 hours, 50 μl of 25 μM PMS (phenazine methosulfate; Sigma Chemical Co.) containing 1 mg/ml XTT (2,3-bis[2-methoxy-4-nitro-5-sulfophenyl]-2H-tetrazolium-5-carboxyaniride inner salt; Sigma Chemical Co.) is added (final concentrations of 250 μg/ml for XTT and 5 μM for PMS). After incubating for 3 hours, the absorbance at 450 nm of each well is measured to calculate the cell viability by using the reduction ability of mitochondria as the index.
The viability of the cells in each well is calculated according to the following formula: Viability(%)=100×(a−b)/(c−b) wherein “a” is the measurement of a test well, “b” is the measurement of a well with no cells, and “c” is the measurement of a well with no antibody added.
In general terms: Tetrazolium assays rely on reduction of a dye to a coloured formazan, in cell work by metabolically active cells.

T1 sequence (O14763 56-180): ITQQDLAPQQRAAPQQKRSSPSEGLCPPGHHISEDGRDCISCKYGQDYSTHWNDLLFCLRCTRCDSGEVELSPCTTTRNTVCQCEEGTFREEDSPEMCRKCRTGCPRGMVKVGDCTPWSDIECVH
T2 sequence (O00220 24-239 limits assumed): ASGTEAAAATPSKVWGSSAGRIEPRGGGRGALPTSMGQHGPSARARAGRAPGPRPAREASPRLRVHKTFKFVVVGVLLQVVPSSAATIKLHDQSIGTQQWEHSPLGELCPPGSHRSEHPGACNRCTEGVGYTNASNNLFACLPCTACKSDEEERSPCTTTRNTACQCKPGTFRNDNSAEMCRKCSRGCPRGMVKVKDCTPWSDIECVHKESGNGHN

Consider `Cn1cc(C2=C(c3cn(CCCN)c4ccccc34)C(=O)NC2=O)c2ccccc21` [BisVIII, Bisindolylmaleimide VIII], for which the “sensitivity to induced cytotoxicity” value in the data set on CLL B cells was “sensitive”.

“TRAIL: soluble recombinant human TRAIL (aa 95 to 281) FLAG-tagged fusion protein, Alexis; used with anti-FLAG crosslinker”: the “binding to immobilized DR5” value with DR5 is listed as “bound comparably”. Further, the “binding to DR4” value with DR4 is reported as “bound to DR4”. The susceptibility to apoptosis entry is “very susceptible” in data set [1]; “much less susceptible” in the data set on Daudi; “resistant” with H-9 cells; “highly susceptible” with Jurkat and CEM-6; “partially susceptible” in the data set with Molt-4 and U937 cells; “resistant” in data set [2]. In addition, the susceptibility to apoptosis result in the data set on U87, U937 and Molt-4 was “exhibited sensitivity”; in data set [3], “resistant”; in the data set on primary B cells, “did not undergo apoptosis”; in the data set with OA72M cells it was “completely resistant”; in data set [5], “susceptible”; in data set [6], “resistant”. In data set [4], the cell death is on record as about 100%. The NF-κb activation entry with NF-κb is on record as “activated in a time-dependent fashion”. For the same molecule, the “production/release of MMPs” value with MMP-1, 3, and 13 was “not associated with increased release”. Besides, the “hepatocytes killed in the presence of cycloheximide” value in the data set with normal human hepatocytes (1 μg/ml TRAIL or TRA-8, 1 μg/ml cycloheximide, four-hour culture) was “greater than 70%”. For the same molecule, the hepatocytes killed result in the data set on normal human hepatocytes (1 μg/ml, end of 24-hour culture, TRAIL plus crosslinker) was “more than 80%”; in the data set with normal human hepatocytes (6-hour culture, 500 ng/ml), “Over 20%”. The cells killed with HepG2 cells is listed as about 100%. Besides, in data set [7], the “liver injury after intravenous injection” value is listed as “did not exhibit increased liver injury”.

B1: humanized TRA-8: humanized TRA-8 of Example 20, cotransfection of pHB14-1 and pSR/M2-1 (H2 heavy, LM2 light chain) (antibody)
VH: EVMLVESGGGLVQPGGSLRLSCAASGFTFSSYVMSWVRQAPGKGLEWVATISSGGSYTYYPDSVKGRFTISRDNAKNTLYLQMNSLRAEDTAVYYCARRGDSMITTDYWGQGTLVTVSS
light: DIVMTQSPSSLSASVGDRVTITCKASQDVGTAVAWYQQKPGKAPKLLIYWASTRHTGVPSRFSGSGSGTDFTLTISSLQPEDFATYYCQQYSSYRTFGQGTKVEIKRTVAAPSVFIFPPSDEQLKSGTASVVCLLNNFYPREAKVQWKVDNALQSGNSQESVTEQDSKDSTYSLSSTLTLSKADYEKHKVYACEVTHQGLSSPVTKSFNRGEC
On to B1, for which the induction of apoptosis result with Jurkat cells was “induce apoptosis”.

The record behind these values is patent US7704502B2, “Combinations of antibodies selective for DR5 and other therapeutic agents” (The UAB Research Foundation, priority 2000, dated 2010).
